Experimental data: patent US10266526B2, “Substituted 1,2,3-triazoles as SMYD inhibitors for treating cancer” (EPIZYME, INC., priority 2014, dated 2019)
Where a name gives a salt, the structure may show the parent alone.

Key:
SMYD3 [1] = target: T1, SMYD3 (Homo sapiens (Human), UniProt Q9H7B4); assay: SMYD3 cell assay (Trimethyl-MEKK2 In-Cell Western in 293T/17 cells transfected with MEKK2-flag and SMYD3); format: cell-based
Source text: Trimethyl-MEKK2-in-Cell Western Assay
MEM/Glutamax medium, Optimem Reduced Serum medium, penicillin-streptomycin, 0.05% trypsin and 1×D-PBS were purchased from Life Technologies, Grand Island, N.Y., USA. PBS-10× was purchased from Ambion, Life Technologies, Grand Island, N.Y., USA. PBS with Tween 20 (PBST (10×)) was purchased from KPL, Gaithersburg, Md., USA. Tet System FBS-approved FBS US Source was purchased from Clontech, Mountain View, Calif., USA. Odyssey blocking buffer, 800CW goat anti-rabbit IgG (H+L) antibody, 680CW Goat anti-mouse IgG (H+L) and Licor Odyssey infrared scanner were purchased from Licor Biosciences, Lincoln, Nebr., USA. Tri-methyl-Lysine [A260]-MEKK2 antibody, MEKK2 and SMYD3 plasmids were made at Epizyme. Anti-flag monoclonal mouse antibody was purchased from Sigma, St. Louis, Mo., USA. Methanol was purchased from VWR, Franklin, Mass., USA. 10% Tween 20 was purchased from KPL, Inc., Gaithersburg, Md., USA. Fugene was purchased from Promega, Madison, Wis., USA. The Biotek ELx405 was purchased from BioTek, Winooski, Vt., USA. The multidrop combi was purchased from Thermo Scientific, Waltham, Mass., USA.
Cell Treatment, in Cell Western (ICW) for Detection of Trimethyl-Lysine-MEKK2 and MEKK2.
Plasmids were prepared for delivery to cells by first mixing 1350 μL Opti-MEM with Fugene (81 μL) in a sterile Eppendorf and incubated for five minutes at room temperature (RT). […] Entire volume of Opti-MEM/Fugene mixture was then added to a microfuge tube containing DNA plasmid, mixed and then incubated ×15 minutes at RT. […] Medium was then removed, and cells were washed once with PBS in the flask. Trypsin 0.05% (3 mL) was added and cells incubated for three minutes. Room temperature MEM+10% Tet system FBS was added and cells were mixed gently, and counted using the Vi-cell. Cells were seeded at 100,000 cells/mL in 50 μL MEM/10% Tet FBS/Pen/Strep to a 384 well black/clear poly-D-lysine coated plate containing test agent diluted in DMSO. The final top concentration of test compound was 40 μM. […] Plates were incubated ×30 minutes at RT in low-airflow area, followed by incubation at 37° C. under 5% CO2 for 24 hours. Medium was aspirated from all wells of assay plates prior to fixation and permeabilization with ice cold (−20° C.) methanol (90 μL/well) for ten minutes. Plates were rinsed with PBS three times on BioTek ELx405. PBS was removed with a final aspiration, and Odyssey blocking buffer (50 μL/well) was added to each well and incubated for one hour at RT. Primary antibody solution was prepared (anti-trimethyl-MEKK2 at 1:600 dilution plus mouse anti-flag antibody at 1:10,000 dilution in diluent (Odyssey Blocking buffer+0.1% Tween 20)) and 20 μL per well was dispensed using the Multidrop Combi. Assay plates were then sealed with foil, and incubated overnight at 4° C. Plates were washed five times with PBS-Tween (1×) on Biotek ELx405 and blotted on paper towel to remove excess reagent.
First, the ratio for each well was determined by:
Each plate included fourteen control wells of DMSO only treatment (Minimum Inhibition) as well as fourteen control wells for maximum inhibition (Background). The average of the ratio values for each control type was calculated and used to determine the percent inhibition for each test well in the plate. Reference compound was serially diluted two-fold in DMSO for a total of nine test concentrations, beginning at 40 μM. Percent inhibition was calculated (below).
Non-linear regression curves were generated to calculate the IC50 and dose-response relationship using triplicate wells per concentration of compound.

SMYD3 [2] = target: T1, SMYD3; assay: SMYD3 biochemical assay (SMYD3 enzyme assay on MEKK2 protein substrate, 3H-SAM scintillation proximity assay); details: read-out: SMYD3 Biochem IC50
In short: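 Native full-length human SMYD3, expressed in E. coli, was preincubated with compound for 30 min at room temperature in 25 mM Tris-Cl pH 8.0, 1 mM TCEP, 0.005% BSG and 0.005% Tween 20. ³H-SAM plus GST-MEKK2 then started the reaction. It was stopped with unlabeled SAM (100 uM final), and methylated MEKK2 was read by SPA.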

[3] = Table 3A, average of n = 1 to n = 50, read-out: SMYD3 cell IC50
[4] = Table 3A, average of n = 1 to n = 50

T1 sequence (Q9H7B4 whole entry): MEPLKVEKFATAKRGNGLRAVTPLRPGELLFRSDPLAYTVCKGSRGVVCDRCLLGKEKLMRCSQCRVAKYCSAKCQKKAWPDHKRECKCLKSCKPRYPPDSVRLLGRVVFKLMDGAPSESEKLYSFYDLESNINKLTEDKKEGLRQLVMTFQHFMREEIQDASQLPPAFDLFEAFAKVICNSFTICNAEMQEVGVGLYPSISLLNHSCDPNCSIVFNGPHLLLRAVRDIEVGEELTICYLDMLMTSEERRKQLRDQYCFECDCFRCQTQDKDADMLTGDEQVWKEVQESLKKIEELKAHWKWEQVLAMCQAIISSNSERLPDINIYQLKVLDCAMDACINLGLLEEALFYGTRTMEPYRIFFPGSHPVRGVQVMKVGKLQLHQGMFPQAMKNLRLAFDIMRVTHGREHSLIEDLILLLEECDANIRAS

IC50 (SMYD3 [1]; read-out: SMYD3 Cell IC50) [µM]	SMILES	IC50 (SMYD3 [1]; [3]) [µM]	IC50 (SMYD3 [2]; [4]) [µM]	IC50 (SMYD3 [2]) [µM]
	C[C@@H]1CN(S(=O)(=O)N2CCC(N)CC2)CC[C@@H]1NC(=O)c1cc2c(cc1Cl)NC(=O)C2 [compound 634, N-((3R,4S)-1-((4-aminopiperidin-1-yl)sulfonyl)-3-methylpiperidin-4-yl)-6-chloro-2-oxoindoline-5-carboxamide]	0.972	0.529	
	O=C1Cc2cc(C(=O)N[C@H]3C[C@H]4CC[C@@H](C3)N4S(=O)(=O)C[C@@H]3CCCNC3)c(Cl)cc2N1 [compound 600, 6-chloro-2-oxo-N-((1R,3R,5S)-8-((((R)-piperidin-3-yl)methyl)sulfonyl)-8-azabicyclo[3.2.1]octan-3-yl)indoline-5-carboxamide]	0.728	0.00499	
	NC1CCC(S(=O)(=O)N2[C@@H]3CC[C@H]2C[C@@H](NC(=O)c2ccc4c(c2)OC(F)(F)O4)C3)CC1 (stereo partly drawn) [Cpd. No. 622, N-((1R,3r,5S)-8-(4-aminocyclohexylsulfonyl)-8-aza-bicyclo[3.2.1]octan-3-yl)-2,2-difluorobenzo[d][1,3]dioxole-5-carboxamide Trifluoroacetate]	1.08	0.131	
	CC(=O)Nc1ccc(S(=O)(=O)N2CCC(NC(=O)c3cc4c(cc3Cl)NC(=O)C4)CC2)cc1 [compound 641, N-(1-((4-acetamidophenyl)sulfonyl)piperidin-4-yl)-6-chloro-2-oxoindoline-5-carboxamide]	≥ 10	5.93	
	CN(C)C1CCN(S(=O)(=O)N2[C@@H]3CC[C@H]2C[C@@H](NC(=O)c2cc4c(cc2Cl)NC(=O)C4)C3)CC1 [compound 594, 6-chloro-N-((1R,3r,5S)-8-((4-(dimethylamino)piperidin-1-yl)sulfonyl)-8-azabicyclo[3.2.1]octan-3-yl)-2-oxoindoline-5-carboxamide]	0.301		0.00346
	CNC1CCN(S(=O)(=O)N2[C@@H]3CC[C@H]2C[C@@H](NC(=O)c2cc4c(cc2Cl)NC(=O)C4)C3)CC1 [compound 586, 6-chloro-N-((1R,3r,5S)-8-((4-(methylamino)piperidin-1-yl)sulfonyl)-8-azabicyclo[3.2.1]octan-3-yl)-2-oxoindoline-5-carboxamide]	0.425	0.00189	
	NC1CCN(S(=O)(=O)N2[C@@H]3CC[C@H]2C[C@@H](NC(=O)c2cnn(C4CC4)c2)C3)CC1 [compound 637, N-((1R,3r,5S)-8-((4-aminopiperidin-1-yl)sulfonyl)-8-azabicyclo[3.2.1]octan-3-yl)-1-cyclopropyl-1H-pyrazole-4-carboxamide]	≥ 10	0.839	
	CCc1cc(C(=O)N[C@H]2C[C@H]3CC[C@@H](C2)N3S(=O)(=O)N2CCC(N)CC2)ns1 [Cpd. No. 610, N-[(1R,3r,5S)-8-(4-aminopiperidine-1-sulfonyl)-8-azabicyclo[3.2.1]octan-3-yl]-5-ethyl-1,2-thiazole-3-carboxamide Hydrochloride]	0.216	0.0238	
> 40	NCCC(=O)N[C@H]1CC[C@H](NC(=O)c2cc3c(cc2Cl)NC(=O)C3)CC1 [compound 491, N-((1r,4r)-4-(3-aminopropanamido)cyclohexyl)-6-chloro-2-oxoindoline-5-carboxamide]			0.15
	CCc1cccc(C(=O)N[C@H]2C[C@H]3CC[C@@H](C2)N3S(=O)(=O)CC2CCNCC2)c1 [compound 635, 3-ethyl-N-((1R,3r,5S)-8-((piperidin-4-ylmethyl)sulfonyl)-8-azabicyclo[3.2.1]octan-3-yl)benzamide]	≥ 10	0.62	
	NC1CCN(S(=O)(=O)N2[C@@H]3CC[C@H]2C[C@@H](NC(=O)c2cc(C4CC4)no2)C3)CC1 [compound 644, N-((1R,3r,5S)-8-((4-aminopiperidin-1-yl)sulfonyl)-8-azabicyclo[3.2.1]octan-3-yl)-3-cyclopropylisoxazole-5-carboxamide]	0.257	0.0185	
	N[C@H]1CC[C@H](S(=O)(=O)N2[C@@H]3CC[C@H]2C[C@@H](NC(=O)c2cc4c(cc2Cl)NC(=O)C4)C3)CC1 [compound 583, N-((1R,3R,5S)-8-(((1r,4R)-4-aminocyclohexyl)sulfonyl)-8-azabicyclo[3.2.1]octan-3-yl)-6-chloro-2-oxoindoline-5-carboxamide]	1.51	0.0011	
	CNC1CCN(S(=O)(=O)N2[C@@H]3CC[C@H]2C[C@@H](NC(=O)c2ccc4c(c2)CC(=O)N4)C3)CC1 [compound 589, N-((1R,3r,5S)-8-((4-(methylamino)piperidin-1-yl)sulfonyl)-8-azabicyclo[3.2.1]octan-3-yl)-2-oxoindoline-5-carboxamide]	0.987	0.00213	
	CN1CCC(CS(=O)(=O)N2[C@@H]3CC[C@H]2C[C@@H](NC(=O)c2ccc4c(c2)OC(F)(F)O4)C3)CC1 [compound 630, 2,2-difluoro-N-((1R,3r,5S)-8-(((1-methylpiperidin-4-yl)methyl)sulfonyl)-8-azabicyclo[3.2.1]octan-3-yl)benzo[d][1,3]dioxole-5-carboxamide]	6.55	0.361	
	NC1CCN(S(=O)(=O)N2[C@@H]3CC[C@H]2C[C@@H](NC(=O)c2ccc4c(c2)CC(=O)N4)C3)CC1 [compound 578, N-((1R,3r,5S)-8-((4-aminopiperidin-1-yl)sulfonyl)-8-azabicyclo[3.2.1]octan-3-yl)-2-oxoindoline-5-carboxamide]	0.854		0.00068
> 40	CC(NC(=O)c1cc2c(cc1Cl)NC(=O)C2)C1CCN(C(=O)[C@H](C)N)CC1 (stereo partly drawn) [Cpd. No. 490, N-(1-(1-((S)-2-aminopropanoyl)piperidin-4-yl)ethyl)-6-chloro-2-oxoindoline-5-carboxamide]			0.43
	N[C@H]1CC[C@@H](S(=O)(=O)N2[C@@H]3CC[C@H]2C[C@@H](NC(=O)c2ccc4c(c2)CC(=O)N4)C3)CC1 [compound 591, N-((1R,3R,5S)-8-(((1s,4S)-4-aminocyclohexyl)sulfonyl)-8-azabicyclo[3.2.1]octan-3-yl)-2-oxoindoline-5-carboxamide]	2.31		0.00233
	C[C@H]1C[C@H](NC(=O)c2nnc(C3CC3)s2)CCN1S(=O)(=O)N1CCC(N)CC1 [compound 631, N-((2S,4R)-1-((4-aminopiperidin-1-yl)sulfonyl)-2-methylpiperidin-4-yl)-5-cyclopropyl-1,3,4-thiadiazole-2-carboxamide]	4.9	0.47	
	CCc1cnnc(C(=O)N[C@H]2C[C@H]3CC[C@@H](C2)N3S(=O)(=O)N2CCC(N)CC2)c1 [compound 616, N-[(1R,3r,5S)-8-(4-aminopiperidine-1-sulfonyl)-8-azabicyclo[3.2.1]octan-3-yl]-5-ethylpyridazine-3-carboxamide Trifluoroacetate]	0.54		0.0499
	O=C1Cc2cc(C(=O)NC3CCN(S(=O)(=O)CC4CCNCC4)CC3)ccc2N1 [compound 620, 2-oxo-N-[1-[(piperidin-4-ylmethane)sulfonyl]piperidin-4-yl]-2,3-dihydro-1H-indole-5-carboxamide Trifluoroacetate]	≥ 10	0.0682	
	C[C@H]1CC(NC(=O)c2cc3c(cc2Cl)NC(=O)C3)CCN1C(=O)[C@H]1CC[C@H](N)CC1 (stereo partly drawn) [compound 640, N-((2S)-1-((1r,4S)-4-aminocyclohexane-1-carbonyl)-2-methylpiperidin-4-yl)-6-chloro-2-oxoindoline-5-carboxamide]	≥ 10		
